Measured values published in patent US20120053200A1, “BACE 2 INHIBITORS” (priority 2010, published 2012).

Molecular target: T1, BACE2 (Rattus norvegicus, UniProt Q6IE75)
T1 construct: endogenous cellular BACE2 in the Ins1e rat cell line; endogenous in cells; host or cells: INS-TMEM27 (INS1e-derived rat beta-cell line with doxycycline-inducible full-length hTMEM27)
T1 sequence (Q6IE75 63-514): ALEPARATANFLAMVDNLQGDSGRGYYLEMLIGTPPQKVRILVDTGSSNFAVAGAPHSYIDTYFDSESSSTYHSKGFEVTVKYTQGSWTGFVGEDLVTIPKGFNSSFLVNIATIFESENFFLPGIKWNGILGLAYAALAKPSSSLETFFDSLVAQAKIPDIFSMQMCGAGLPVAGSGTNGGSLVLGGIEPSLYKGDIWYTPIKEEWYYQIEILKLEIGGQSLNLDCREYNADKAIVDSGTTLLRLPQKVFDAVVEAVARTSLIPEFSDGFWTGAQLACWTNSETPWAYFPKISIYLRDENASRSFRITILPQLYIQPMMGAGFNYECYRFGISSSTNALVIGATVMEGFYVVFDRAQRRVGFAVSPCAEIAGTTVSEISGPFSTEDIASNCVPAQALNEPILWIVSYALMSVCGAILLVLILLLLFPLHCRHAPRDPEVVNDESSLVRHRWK
Test: Assay for BACE inhibition by measuring cellular TMEM27 cleavage (INS-TMEM27 cells, ELISA of shed TMEM27)
Format: cell-based
Conditions: inhibition of human TMEM27 cleavage by endogenous cellular BACE2 in INS1e-derived INS-TMEM27 rat cell line; ELISA of shed TMEM27 in supernatant
From the text: Assay for […] Inhibition by Measuring Cellular TMEM27 Cleavage
This assay uses the principle of inhibition of human TMEM27 cleavage by endogenous cellular BACE2 in the Ins1e rat cell line and shedding from the cell surface into the culture medium, followed by detection in an ELISA assay. Inhibition of BACE2 prevents the cleavage and shedding in a dose-dependent manner.
The stable cell line “INS-TMEM27” represents an INS1e-derived cell line with inducible expression (using the TetOn system) of full-length hTMEM27 in a doxycycline-dependent manner. The cells were cultured throughout the experiment in RPMI1640+Glutamax (Invitrogen) Penicillin/Streptomycin, 10% Fetal bovine serum, 100 mM pyruvate, […] beta-mercatptoethanol, 100 micrograms/ml G418 and 100 microgram/ml hygromycin and were grown in adherent culture at 37° C. in a standard CO2 cell culture incubator.
INS-TMEM27 cells were seeded in 96-well plates. After 2 days in culture, BACE2 inhibitor was added in a range of concentrations as required by the assay and after a further two hours, doxycycline was added to a final concentration of 500 ng/ml. The cells were incubated for a further 46 hours and the supernatant harvested for detection of shed TMEM27.
An ELISA assay (using a pair of mouse anti-human-TMEM27 antibodies, raised against the extracellular domain of TMEM27) was used for detection of TMEM27 in the culture medium. An IC50 for BACE2 inhibition was calculated using the ELISA readout for each inhibitor concentration with standard curve-fitting software.
The inhibitory activity, given as an IC50 value, of the compounds of Examples 1 to 32 and 34 to 74 were as follows.

| SMILES | IC50 |
| --- | --- |
| CCn1cc(CNC[C@@H](O)[C@H](Cc2ccccc2)NC(=O)c2cc(C)cc(C(=O)N3CCC[C@@H]3c3nc(C)cs3)c2)cn1 [Example 34, N-{(1S,2R)-1-Benzyl-3-[(1-ethyl-1H-pyrazol-4-ylmethyl)-amino]-2-hydroxy-propyl}-3-methyl-5-[(R)-2-(4-methyl-thiazol-2-yl)-pyrrolidine-1-carbonyl]-benzamide] | 145 nM |
| O=C(N[C@@H](Cc1ccccc1)[C@H](O)CNCc1cccc(C(F)(F)F)c1)c1cccc(C(=O)N2CCCC2C2CCCCC2)c1 (stereo partly drawn) [Example 69, N-[(1S,2R)-1-Benzyl-2-hydroxy-3-(3-trifluoromethyl-benzylamino)-propyl]-3-(2-cyclohexyl-pyrrolidine-1-carbonyl)-benzamide] | 7 nM |
| Cc1cccc(C2CCCN2C(=O)c2cccc(C(=O)N[C@@H](Cc3ccccc3)[C@H](O)CNCc3cccc(C(F)(F)F)c3)c2)c1 (stereo partly drawn) [Example 58, N-[(1S,2R)-1-Benzyl-2-hydroxy-3-(3-trifluoromethyl-benzylamino)-propyl]-3-(2-m-tolyl-pyrrolidine-1-carbonyl)-benzamide] | 89 nM |
| O=C(N[C@@H](Cc1ccccc1)[C@H](O)CNCc1cccc(OC(F)(F)F)c1)c1cccc(C(=O)N2CCCC2c2ccncc2)c1 (stereo partly drawn) [Example 4, N-[(1S,2R)-1-Benzyl-2-hydroxy-3-(3-trifluoromethoxy-benzylamino)-propyl]-3-(2-pyridin-4-yl-pyrrolidine-1-carbonyl)-benzamide] | 471 nM |
| O=C(N[C@@H](Cc1ccccc1)[C@H](O)CNCc1cccc(C(F)(F)F)c1)c1cccc(C(=O)N2CCC[C@@H]2c2ccccc2)c1 [Example 66, N-[(1S,2R)-1-Benzyl-2-hydroxy-3-(3-trifluoromethyl-benzylamino)-propyl]-3-((R)-2-phenyl-pyrrolidine-1-carbonyl)-benzamide] | 314 nM |
| CC(C)(C)C1CCCN1C(=O)c1cccc(C(=O)N[C@@H](Cc2ccccc2)[C@H](O)CNCc2cccc(C(F)(F)F)c2)c1 (stereo partly drawn) [Example 73, N-[(1S,2R)-1-Benzyl-2-hydroxy-3-(3-trifluoromethyl-benzylamino)-propyl]-3-(2-tert-butyl-pyrrolidine-1-carbonyl)-benzamide] | 56 nM |
| CN(c1cc(C(=O)N[C@@H](Cc2ccccc2)[C@H](O)CNCc2cccc(C(F)(F)F)c2)cc(C(=O)N2CCCC2c2cccs2)c1)S(C)(=O)=O (stereo partly drawn) [Example 53, N-[(1S,2R)-1-Benzyl-2-hydroxy-3-(3-trifluoromethyl-benzylamino)-propyl]-3-(methanesulfonyl-methyl-amino)-5-(2-thiophen-2-yl-pyrrolidine-1-carbonyl)-benzamide] | 29 nM |
| Cc1csc([C@H]2CCCN2C(=O)c2cccc(C(=O)N[C@@H](Cc3ccccc3)[C@H](O)CNCc3cccc(C(F)(F)F)c3)c2)n1 [Example 11, N-[(1S,2R)-1-Benzyl-2-hydroxy-3-(3-trifluoromethyl-benzylamino)-propyl]-3-[(R)-2-(4-methyl-thiazol-2-yl)-pyrrolidine-1-carbonyl]-benzamide] | 9 nM |
| CC(=O)C1CC(c2ccc(F)cc2)N(C(=O)c2cccc(C(=O)N[C@@H](Cc3ccccc3)[C@H](O)CNCc3cccc(C(F)(F)F)c3)c2)C1 (stereo partly drawn) [Example 64, 3-[4-Acetyl-2-(4-fluoro-phenyl)-pyrrolidine-1-carbonyl]-N-[(1S,2R)-1-benzyl-2-hydroxy-3-(3-trifluoromethyl-benzylamino)-propyl]-benzamide] | 26 nM |
| CN(Cc1ccccn1)C(=O)c1cccc(C(=O)N[C@@H](Cc2ccccc2)[C@H](O)CNCc2cccc(OC(F)(F)F)c2)c1 [Example 29, N-[(1S,2R)-1-Benzyl-2-hydroxy-3-(3-trifluoromethoxy-benzylamino)-propyl]-N′-methyl-N′-pyridin-2-ylmethyl-isophthalamide] | 112 nM |
| O=C(N[C@@H](Cc1ccccc1)[C@H](O)CNCc1cccc(C(F)(F)F)c1)c1cccc(C(=O)N2CCCC2C(=O)c2ccccc2)c1 (stereo partly drawn) [Example 71, 3-(2-Benzoyl-pyrrolidine-1-carbonyl)-N-[(1S,2R)-1-benzyl-2-hydroxy-3-(3-trifluoromethyl-benzylamino)-propyl]-benzamide] | 484 nM |
| Cc1csc([C@H]2CCCN2C(=O)c2cc(C(=O)N[C@@H](Cc3ccccc3)[C@H](O)CNCc3cccc(C(F)(F)F)c3)cc(N(C)S(C)(=O)=O)c2)n1 [Example 48, N-[(1S,2R)-1-Benzyl-2-hydroxy-3-(3-trifluoromethyl-benzylamino)-propyl]-3-(methanesulfonyl-methyl-amino)-5-[(R)-2-(4-methyl-thiazol-2-yl)-pyrrolidine-1-carbonyl]-benzamide] | 81 nM |
| CN(c1cc(C(=O)N[C@@H](Cc2ccccc2)[C@H](O)CNCc2cccc(OC(F)(F)F)c2)cc(C(=O)N2CCCC2c2cccs2)c1)S(C)(=O)=O (stereo partly drawn) [Example 45, N-[(1S,2R)-1-Benzyl-2-hydroxy-3-(3-trifluoromethoxy-benzylamino)-propyl]-3-(methanesulfonyl-methyl-amino)-5-(2-thiophen-2-yl-pyrrolidine-1-carbonyl)-benzamide] | 11 nM |
| CCn1cc(CNC[C@@H](O)[C@H](Cc2ccccc2)NC(=O)c2cccc(C(=O)N3CCCC3c3cccs3)c2)cn1 (stereo partly drawn) [Example 31, N-{(1S,2R)-1-Benzyl-3-[(1-ethyl-1H-pyrazol-4-ylmethyl)-amino]-2-hydroxy-propyl}-3-(2-thiophen-2-yl-pyrrolidine-1-carbonyl)-benzamide] | 239 nM |
| COc1cccc(CNC[C@@H](O)[C@H](Cc2ccccc2)NC(=O)c2cccc(C(=O)N3CCC[C@@H]3c3nc(C)cs3)c2)c1 [Example 20, N-[(1S,2R)-1-Benzyl-2-hydroxy-3-(3-methoxy-benzylamino)-propyl]-3-[(R)-2-(4-methyl-thiazol-2-yl)-pyrrolidine-1-carbonyl]-benzamide] | 143 nM |
| COc1cccc(CNC[C@@H](O)[C@H](Cc2ccccc2)NC(=O)c2cccc(C(=O)N3CCCC3c3ccccc3)c2)c1 (stereo partly drawn) [Example 22, N-[(1S,2R)-1-Benzyl-2-hydroxy-3-(3-methoxy-benzylamino)-propyl]-3-(2-phenyl-pyrrolidine-1-carbonyl)-benzamide] | 31.2 nM |
| O=C(N[C@@H](Cc1ccccc1)[C@H](O)CNCc1cccc(OC(F)(F)F)c1)c1cccc(C(=O)N2CCCC2c2cccs2)c1 (stereo partly drawn) [Example 32, N-[(1S,2R)-1-Benzyl-2-hydroxy-3-(3-trifluoromethoxy-benzylamino)-propyl]-3-(2-thiophen-2-yl-pyrrolidine-1-carbonyl)-benzamide] | 138 nM |
| Cc1cc(C2CCCN2C(=O)c2cccc(C(=O)N[C@@H](Cc3ccccc3)[C@H](O)CNCc3cccc(OC(F)(F)F)c3)c2)on1 (stereo partly drawn) [Example 26, N-[(1S,2R)-1-Benzyl-2-hydroxy-3-(3-trifluoromethoxy-benzylamino)-propyl]-3-[2-(3-methyl-isoxazol-5-yl)-pyrrolidine-1-carbonyl]-benzamide] | 284 nM |
| Cc1cc(C(=O)N[C@@H](Cc2ccccc2)[C@H](O)CNCc2cccc(OC(F)(F)F)c2)cc(C(=O)N(C)Cc2nc(C)cs2)c1 [Example 47, N-[(1S,2R)-1-Benzyl-2-hydroxy-3-(3-trifluoromethoxy-benzylamino)-propyl]-5,N′-dimethyl-N′-(4-methyl-thiazol-2-ylmethyl)-isophthalamide] | 117 nM |
